Here are results for 2 compounds from paper PMC7377361, “Pressurized DNA state inside herpes capsids—A novel antiviral target” (PLoS Pathogens, 2020).

Data set [1] can be described thus: Cytotoxicity assay in uninfected HFF-1 cells. Particulars: human.
Experimental: (§1) In parallel, for each DNA condensing compound, we determined the cytotoxicity concentration (CC50 value) using standard in vitro cellular replication assays in human foreskin fibroblast (HFF) cells (used as a standard for herpesvirus replication in vitro assays for antiviral compound tests)[48]. Cytotoxicity assays were performed on a parallel set of six-well plates containing confluent monolayers of HFF-1 cells at the same cell amount as used for antiviral plaque reduction assays for EC50 value determination, but cells were uninfected[48].
(§2) Cytotoxicity assays were performed on a parallel set of six-well plates containing HFF-1 cells that received the same compound concentrations as used for the antiviral assays but remained uninfected. […]
(§3) Each compound was evaluated in a standard cytotoxicity assay by standard methods [100]. […] The optical density was then determined at 550 nm and CC50 values were interpolated from the experimental data.
(§4) The inhibition of either Vero cell or HFF-1 cell proliferation was used to refine estimates of cytotoxicity for the compounds and was performed according to standard procedures [101]. […] The plates were incubated for 72 h at 37°C; the cells were then dislodged with trypsin and counted on a Beckman Coulter Counter. […]
The subject of data set [2] is DNA packaged in HSV-1 virion. The data set is described as follows: SAXS of HSV-1 virions with added compound. Particulars: HSV-1 virions in TM-buffer, 37°C. As to the method:
In the third SAXS screening step, we added the selected compounds to whole virions (enveloped capsids) in TM-buffer to verify that the compounds penetrate the lipid envelope, tegument protein layer, and capsid wall. […] Both C-capsids and virions have a well-resolved X-ray scattering peak corresponding to diffraction from packaged DNA[60] used for ds determination. […] During HSV-1 replication, it takes approximately 1 h for HSV-1 to adsorb to a cell surface and an additional 2–4 h for viral capsids to be transported, once fused with a cell membrane, to a cell nucleus where DNA is ejected from capsids. [HSV-1 replication dynamics in cell culture were verified separately and were also verified elsewhere[41]]. […] Compound concentrations in this SAXS measurements of virions were the same as in the SAXS measurements of C-capsids above, with virion concentration of 10^13 pfu/mL.
Vero cells were infected with an HSV-1 KOS strain overnight (21 h at 37°C) at a MOI of 0.1 PFU per cell. […] The concentrations of the compounds added to induce DNA condensation were calculated as described above.
All SAXS measurements of viral capsids were conducted at a concentration of 10^13 viral particles per mL (the highest technically achievable capsid concentration). […] Samples were measured in the temperature range of 15–37°C, and the sample temperature was controlled with a Peltier device with ± 0.5°C accuracy. […]

The subject of data set [3] is HFF-1 cells.
Experimental: as §1, §2, §3, §4
The subject of data set [4] is MEF cell line.
Text: We also determined cytotoxicity in the murine MEF cell line, relevant to animal studies.

Where no end group is shown, it is not given here.

For orientation: CC50 means the concentration giving 50% cytotoxicity. Higher therefore signals better tolerance by the cells. In data set [1], RRRRR [Arg^5+] had a half-maximal cytotoxic concentration (CC50) at 7 days of 83 µM. The “DNA-DNA interaxial spacing ds” value in data set [2] is “below 31 Å”.
Take `NCCCN(CCCN)CCCCN(CCCN)CCCN` [DAB-Am-4]: the CC50 worked out at 15 µM in data set [3] and 22 µM in data set [4]. Also, in data set [2], the “DNA-DNA interaxial spacing ds” value is “below 31 Å”.
